Converted amounts (≈) assume the structure as drawn. Some results are limits rather than exact numbers.

The term IC50 denotes the point on the concentration scale where inhibition reaches its midpoint. High values mean lower potency, low ones higher potency. What is called MIC is the lowest concentration that inhibits growth of the organism. A low value points to inhibition by little substance. What is called CC50 is the concentration at which the toxic effect on the cells reaches its halfway point. A low value points to harm at low concentration. A word on the GI50: it is the concentration at which growth is held to half of that of the control.

One data set has as its system Plasmodium berghei. Kind of data set: Antimalarial activity against Plasmodium berghei N/13 infected in MF1 mouse. Type of data set: functional. The conditions noted are these: read-out: ID50 (the source's name).
Data set [1] has as its system Plasmodium falciparum. Description: Antimalarial activity against chloroquine-sensitive Plasmodium falciparum 3D7. Format: functional, organism-based.
Data set [2] relates to Plasmodium falciparum. Kind of data set: Antimalarial activity against chloroquine-resistant Plasmodium falciparum K1. Type of data set: functional, organism-based.
Data set [3] has as its system Plasmodium falciparum. Description: Antiprotozoal activity against chloroquine-sensitive Plasmodium falciparum D6. Format: functional, organism-based.
Data set [4] concerns Plasmodium falciparum. Kind of data set: Antiprotozoal activity against chloroquine-resistant Plasmodium falciparum W2. Format: functional, organism-based.
Data set [5] addresses Histone-lysine N-methyltransferase, H3 lysine-79 specific (Homo sapiens, UniProt Q8TEK3). Kind of data set: Inhibition of DOT1L (unknown origin).
The test system of the next data set is HL-60. Kind of data set: Antiproliferative activity against human HL60 cells. Format: functional, cell-based.
Data set [6] relates to Staphylococcus aureus. Kind of data set: Antibacterial activity against Staphylococcus aureus. Type of data set: functional.
A further data set deals with Shigella. Kind of data set: Antibacterial activity against Shigella. Format: functional.
For the next data set, the system named is Proteus. Kind of data set: Antibacterial activity against Proteus. Format: functional.
In the next data set the test system is Enterococcus. Description: Antibacterial activity against Enterococcus. Type of data set: functional.
The subject of data set [7] is Escherichia coli. Kind of data set: Antibacterial activity against Escherichia coli. Type of data set: functional.
The test system of a further data set is Klebsiella pneumoniae. Kind of data set: Antibacterial activity against Klebsiella pneumoniae. Type of data set: functional.
For data set [8], the system named is Plasmodium falciparum. Kind of data set: Potency index, ratio of chloroquine IC50 to compound IC50 for antimalarial activity against chloroquine-resistant Plasmodium falciparum K1. Format: functional.
For data set [9], the system named is Staphylococcus aureus. Kind of data set: Antibacterial activity against Staphylococcus aureus 1199-3. Type of data set: functional.
For data set [10], the system named is Staphylococcus aureus. Kind of data set: Antibacterial activity against Staphylococcus aureus 1199. Format: functional.
The subject of data set [11] is Staphylococcus aureus. Description: Antibacterial activity against glycopeptide-intermediate Staphylococcus aureus. Type of data set: functional.
The subject of data set [12] is Staphylococcus aureus. Description: Antibacterial activity against Staphylococcus aureus 1199B. Type of data set: functional.
The next data set relates to Plasmodium vinckei. Kind of data set: Antimalarial activity against Plasmodium vinckei infected in ip dosed mouse. Format: functional.
Data set [13] can be described thus: Cytotoxicity against human MRC5 cells. Format: cell-based.
In data set [14] the test system is Plasmodium falciparum. Description: Antimalarial activity against chloroquine-resistant Plasmodium falciparum FcB1. Type of data set: functional, organism-based. The following applies: FcB1/Columbia.
A short description of data set [15]: Selectivity index, ratio of CC50 for human MRC5 cells to IC50 for chloroquine-resistant Plasmodium falciparum FcB1. Format: toxicity. The conditions noted are these: read-out: Ratio CC50/IC50.
For data set [16], the system named is Plasmodium falciparum. Kind of data set: Antimalarial activity against chloroquine-sensitive Plasmodium falciparum D10. Format: functional, organism-based.
For data set [17], the system named is Plasmodium falciparum. Description: Antimalarial activity against pfmdr1-overexpressing chloroquine-resistant Plasmodium falciparum K1mef. Type of data set: functional, organism-based. The conditions noted are these: K1 mef.
Data set [18] concerns Escherichia coli. Kind of data set: Antibacterial activity against Escherichia coli ATCC 8739 assessed as zone of inhibition at 50 ug/disc. Type of data set: functional. The conditions noted are these: read-out: DIZ.
The test system of data set [19] is Staphylococcus aureus. Description: Antibacterial activity against Staphylococcus aureus ATCC 6538 assessed as zone of inhibition at 100 ug/disc. The conditions noted are these: read-out: DIZ. Type of data set: functional.
The subject of the next data set is Kasumi 1. Kind of data set: Antiproliferative activity against human Kasumi-1 cells. Format: functional, cell-based.
In another data set the test system is MV4-11. Kind of data set: Antiproliferative activity against human MV4-11 cells. Type of data set: functional, cell-based.
Another data set deals with MDA-MB-468. Description: Antiproliferative activity against human MDA-MB-468 cells. Type of data set: functional.
For the next data set, the system named is MCF7. Kind of data set: Antiproliferative activity against human MCF7 cells. Format: functional.

Chain of Histone-lysine N-methyltransferase, H3 lysine-79 specific (Q8TEK3 whole entry): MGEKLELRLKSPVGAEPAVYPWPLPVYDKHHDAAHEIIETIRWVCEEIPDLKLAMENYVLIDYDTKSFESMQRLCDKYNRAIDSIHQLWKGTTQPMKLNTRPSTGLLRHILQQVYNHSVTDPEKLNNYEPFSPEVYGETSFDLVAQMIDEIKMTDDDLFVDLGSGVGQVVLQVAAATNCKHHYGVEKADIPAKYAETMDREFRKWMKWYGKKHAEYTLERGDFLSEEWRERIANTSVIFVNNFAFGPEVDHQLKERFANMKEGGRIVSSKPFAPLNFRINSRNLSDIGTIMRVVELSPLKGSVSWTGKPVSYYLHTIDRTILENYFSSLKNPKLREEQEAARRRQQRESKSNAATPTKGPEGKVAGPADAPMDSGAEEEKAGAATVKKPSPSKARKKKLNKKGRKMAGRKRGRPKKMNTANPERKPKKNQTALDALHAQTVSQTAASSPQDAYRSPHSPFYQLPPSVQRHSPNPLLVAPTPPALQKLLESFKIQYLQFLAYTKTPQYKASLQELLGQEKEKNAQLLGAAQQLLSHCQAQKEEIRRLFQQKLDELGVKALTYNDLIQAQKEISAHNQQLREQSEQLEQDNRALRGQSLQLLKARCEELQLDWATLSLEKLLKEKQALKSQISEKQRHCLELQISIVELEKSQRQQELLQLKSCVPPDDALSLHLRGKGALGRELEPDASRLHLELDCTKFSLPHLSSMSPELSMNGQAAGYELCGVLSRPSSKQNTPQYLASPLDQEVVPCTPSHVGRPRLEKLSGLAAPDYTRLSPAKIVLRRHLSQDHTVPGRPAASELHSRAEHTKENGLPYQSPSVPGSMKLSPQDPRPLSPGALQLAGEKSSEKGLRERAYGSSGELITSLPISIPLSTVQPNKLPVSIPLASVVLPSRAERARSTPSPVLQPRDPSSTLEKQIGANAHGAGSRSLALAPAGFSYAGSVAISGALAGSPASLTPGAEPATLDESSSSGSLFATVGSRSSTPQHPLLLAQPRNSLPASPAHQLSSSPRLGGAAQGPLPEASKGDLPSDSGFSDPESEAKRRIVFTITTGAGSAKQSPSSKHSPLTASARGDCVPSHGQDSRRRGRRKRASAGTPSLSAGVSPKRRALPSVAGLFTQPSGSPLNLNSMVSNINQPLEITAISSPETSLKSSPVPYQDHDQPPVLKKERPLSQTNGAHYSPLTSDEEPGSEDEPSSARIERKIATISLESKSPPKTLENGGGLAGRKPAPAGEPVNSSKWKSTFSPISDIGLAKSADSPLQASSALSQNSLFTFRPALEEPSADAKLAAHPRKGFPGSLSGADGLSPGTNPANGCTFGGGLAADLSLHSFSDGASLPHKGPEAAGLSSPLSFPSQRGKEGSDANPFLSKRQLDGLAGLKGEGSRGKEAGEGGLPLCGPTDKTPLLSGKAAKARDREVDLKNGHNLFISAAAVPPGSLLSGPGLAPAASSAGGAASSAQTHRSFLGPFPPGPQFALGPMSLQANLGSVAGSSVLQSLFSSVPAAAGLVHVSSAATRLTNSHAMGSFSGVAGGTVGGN

As for `FC(F)(F)c1ccc2c(N[C@@H]3CCCC[C@H]3Nc3ccnc4cc(C(F)(F)F)ccc34)ccnc2c1`, the ED50 in the data set with Plasmodium berghei stood at 5.9 mg/kg.

For `CCC(C)[C@H](Nc1ccnc2cc(Cl)ccc12)C(=O)NCCNc1ccnc2cc(Cl)ccc12` (stereo not given in full), the half-maximal inhibitory concentration (IC50) worked out at 0.024 µM in the data set on Plasmodium falciparum [1] and 0.026 µM in the data set on Plasmodium falciparum [2].

As to `Clc1ccc2c(N[C@@H]3CCCC[C@H]3Nc3ccnc4cc(Cl)ccc34)ccnc2c1` (relative stereo), the ED50 in the data set with Plasmodium berghei is 3 mg/kg. Besides, the IC50 with Plasmodium falciparum [3] was determined as 0.001 µM; in the data set with Plasmodium falciparum [4], 0.0014 µM.

As for `Cc1cc(Nc2ccc3nc(C)cc(N)c3c2)nc(Nc2ccc3nc(C)cc(N)c3c2)n1`, in data set [5], the 50% inhibitory concentration (IC50) was 1.5 µM.

`CN1CCN(c2cc3c(cc2F)c(=O)c(-c2nn4c(-c5cn(C6CC6)c6cc(N7CCNCC7)c(F)cc6c5=O)nnc4s2)cn3C2CC2)CC1` showed an IC50 in the data set on HL-60 of 0.54 µM.

Turning to `Clc1ccc2c(NCCOCCNc3ccnc4cc(Cl)ccc34)ccnc2c1`, the IC50 in the data set on Plasmodium falciparum [3] and in the data set with Plasmodium falciparum [4] was 0.0012 to 0.089 µM in each case.

As for `O=C(O)c1cn(C2CC2)c2cc(N3CCN(c4nc(N5CCN(c6cc7c(cc6F)c(=O)c(C(=O)O)cn7C6CC6)CC5)c(F)c(S(=O)(=O)c5ccccc5)c4F)CC3)c(F)cc2c1=O`, the minimum inhibitory concentration (MIC) against Staphylococcus aureus [6], in the data set on Shigella, with Proteus, in the data set on Enterococcus, in the data set with Escherichia coli [7] and in the data set with Klebsiella pneumoniae was 0.25 to 2 µg/mL (≈ 0.274 to 2.19 µM) each time.

In the data set on HL-60, `C[C@H]1COc2c(N3CCN(C)CC3)c(F)cc3c(=O)c(-c4nn5c(-c6cn(C7CC7)c7cc(N8CCNCC8)c(F)cc7c6=O)nnc5s4)cn1c23` yielded a half-maximal inhibitory concentration (IC50) of 0.12 µM.

On to `CN(CCCNc1ccnc2cc(Cl)ccc12)CCCNc1ccnc2cc(Cl)ccc12`, for which the IC50 in the data set with Plasmodium falciparum [3] and in the data set with Plasmodium falciparum [4] was 0.0012 to 0.089 µM throughout.

On to `CCN(CC)CCCC(C)Nc1cc(CCCCCCCCCCCCc2cc(NC(C)CCCN(CC)CC)c3ccccc3n2)nc2ccccc12` (stereo not given), for which the “Ratio IC50” value in the data set with Plasmodium falciparum [8] was found to be 31.7.

For the compound `CCn1cc(C(=O)O)c(=O)c2cc(F)c(N3CCNCC3)cc21` [NORFLOXACIN], the MIC was 0.125 to 16 µg/mL (≈ 0.391 to 50.1 µM) with Staphylococcus aureus [9], 0.125 to 16 µg/mL (≈ 0.391 to 50.1 µM) against Staphylococcus aureus [10], over 16 µg/mL in the data set on Staphylococcus aureus [11] and 0.125 to 16 µg/mL (≈ 0.391 to 50.1 µM) with Staphylococcus aureus [12].

Consider `c1ccc2c(c1)nc(NCCCN1CCN(CCCNc3nc4ccccc4c4sccc34)CC1)c1ccsc12`, for which the ED50 in the data set on Plasmodium vinckei stood at 30 mg/kg.

Turning to `Clc1ccc2c(NCCCOCCCCOCCCNc3ccnc4cc(Cl)ccc34)ccnc2c1`, the IC50 with Plasmodium falciparum [3] and in the data set on Plasmodium falciparum [4] was 0.0012 to 0.089 µM throughout.

As to `Clc1ccc2c(NCCCOCCOCCOCCCNc3ccnc4cc(Cl)ccc34)ccnc2c1`, the half-inhibitory concentration (IC50) in the data set with Plasmodium falciparum [3] and in the data set with Plasmodium falciparum [4] was 0.0012 to 0.089 µM each time.

`COc1cc(C)nc2ccc(Nc3cc(C)nc(Nc4ccc5nc(C)cc(OC)c5c4)n3)cc12` had a half-maximal inhibitory concentration (IC50) in data set [5] of 21.7 µM.

`Clc1ccc2c(NCCOCCOCCNc3ccnc4cc(Cl)ccc34)ccnc2c1`: the half-maximal inhibitory concentration (IC50) in the data set with Plasmodium falciparum [3] and with Plasmodium falciparum [4] was 0.0012 to 0.089 µM in each case.

Regarding `Clc1ccc2c(NCCCN3CCN(CCCNCc4ccnc5ccccc45)CC3)ccnc2c1`, the cytotoxic concentration (CC50) in data set [13] came to 16.4 µM. Inhibition in the data set with Plasmodium falciparum [14] was half-maximal at 0.0201 µM (IC50). For the same compound, the selectivity ratio in [15] came to 816.

For `CCC1C[C@@H]2CC[C@H]1CC2C(O)c1ccnc2c(NC(=O)CCCCC(=O)Nc3cccc4c(C(O)C5C[C@@H]6CC[C@H]5C(CC)C6)ccnc34)cccc12` (stereo not given in full), the IC50 with Plasmodium falciparum [16] came out at 0.05 µM; in the data set on Plasmodium falciparum [17] it was 0.02 µM; with Plasmodium falciparum [2] it was 0.02 µM.

Consider `O=C(O)c1cn(C2CC2)c2cc(N3CCNCC3)c(F)cc2c1=O` [CIPROFLOXACIN], for which, in the data set with Escherichia coli [18], the zone of inhibition at 50 µg/disc was determined as 36 mm. Also, the minimal inhibitory concentration (MIC) with Staphylococcus aureus [9] was 0.125 to 16 µg/mL (≈ 0.377 to 48.3 µM); against Staphylococcus aureus [10] it was 0.125 to 16 µg/mL (≈ 0.377 to 48.3 µM); in the data set on Staphylococcus aureus [11] it was over 16 µg/mL; in the data set on Staphylococcus aureus [12], 0.125 to 16 µg/mL (≈ 0.377 to 48.3 µM). Besides, the zone of inhibition at 100 µg/disc in the data set with Staphylococcus aureus [19] was 38 mm.

With `Cc1cc(N)c2cc(Nc3ccnc(Nc4ccc5nc(C)cc(N)c5c4)n3)ccc2n1`, in data set [5], half-maximal inhibition (IC50) was put at 1.08 µM.

Take `Clc1ccc2c(NCCCCCCNCCCCCCNc3ccnc4cc(Cl)ccc34)ccnc2c1`: the IC50 in the data set with Plasmodium falciparum [3] and with Plasmodium falciparum [4] was 0.0012 to 0.089 µM each time.

Consider `Cc1cc(Nc2ccc3nc(C)cc(O)c3c2)nc(Nc2ccc3nc(C)cc(O)c3c2)n1`, for which the IC50 in data set [5] is 4.35 µM.

For `O=C(O)c1cn(C2CC2)c2cc(N3CCN(c4nc(Cl)nc(N5CCN(c6cc7c(cc6F)c(=O)c(C(=O)O)cn7C6CC6)CC5)n4)CC3)c(F)cc2c1=O`, the minimal inhibitory concentration (MIC) in the data set on Staphylococcus aureus [6], against Shigella, in the data set with Proteus, against Enterococcus, in the data set with Escherichia coli [7] and in the data set with Klebsiella pneumoniae was 0.25 to 2 µg/mL (≈ 0.323 to 2.58 µM) throughout.

Turning to `CCn1cc(C(=O)O)c(=O)c2cnc(N3CCNCC3)nc21` [PIPEMIDIC ACID], the MIC with Staphylococcus aureus [9] was 0.125 to 16 µg/mL (≈ 0.412 to 52.7 µM); against Staphylococcus aureus [10], 0.125 to 16 µg/mL (≈ 0.412 to 52.7 µM); in the data set on Staphylococcus aureus [11] it was over 16 µg/mL; against Staphylococcus aureus [12], 0.125 to 16 µg/mL (≈ 0.412 to 52.7 µM).

For `Cc1cc(N)c2cc(Nc3cc(Nc4ccc5nc(C)cc(N)c5c4)ncn3)ccc2n1`, the half-maximal inhibitory concentration (IC50) in the data set with Kasumi 1 was found to be 45.8 µM; in [5], 1.06 µM; in the data set on MV4-11 it was 30.5 µM.

Regarding `Clc1ccc2c(NCCCNCCNc3ccnc4cc(Cl)ccc34)ccnc2c1`, the half-maximal inhibitory concentration (IC50) with Plasmodium falciparum [3] and with Plasmodium falciparum [4] was 0.0012 to 0.089 µM each time.

With `Clc1ccc2c(NCCNc3ccnc4cc(Cl)ccc34)ccnc2c1`, the 50% growth inhibitory concentration (GI50) in the data set on MDA-MB-468 came out at 7.35 µM; in the data set with MCF7, 14.8 µM.

The values are drawn from ChEMBL document CHEMBL4325848, “Quinoline and quinolone dimers and their biological activities: An overview” (Eur J Med Chem, 2019).
